Test results from patent US8222218B2, “Cyclopropanated carbohydrates” (Seton Hall University, priority 2008, dated 2012).
Like-named read-outs stand apart in the source and are kept apart here.

Experiments:
Assay type in all cases: in vivo
[1] = Acute toxicity, minimal motor impairment (rotorod), mice; conditions: mice, rotorod
In short: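 Mice placed on a rod rotating at 6 rpm; a compound is scored toxic when the animal falls off three times within 1 min. In rats, minimal motor deficit is scored as ataxia, an abnormal uncoordinated gait.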

[2] = system: metrazole-induced clonic seizures; test: Subcutaneous Metrazole Seizure Threshold Test (scMET), mice; conditions: Mus musculus, sc, mice
In short: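 CF1 mice dosed with test compound at 30, 100 and 300 mg/kg; Sprague-Dawley rats at 50 mg/kg p.o. At compound TPE, metrazole at CD97 (85 mg/kg in mice) injected s.c. in the neck. Animals observed 30 min; endpoint is a 3-5 s clonic spasm episode.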

MES-induced seizures = test: Maximal Electroshock Seizure (MES) test, rats; conditions: rat, p.o., 30 mg/kg
Method: Toxicity was measured using the minimal motor impairment test described below.
The MES test is a model for generalized tonic-clonic seizures. The seizures are highly reproducible and electrophysiologically consistent with human seizures. The test provides information about a compound's ability to prevent the spread of seizure when all neuronal circuits of the brain are maximally active. 60 Hz of alternating current (50 mA in mice, 150 mA in rats) is applied for 2 seconds via corneal electrodes that have been treated with an electrolyte solution containing an anesthetic (0.5% tetracaine HCl). Mice are tested at a variety of intervals after an i.p. injection of […] solution of the test compound (commonly in a 0.5% solution of methylcellulose) at 30, 100, and 300 mg/kg doses. Rats are examined after a 30 mg/kg (per os, p.o.) dose that is applied in a volume of 0.04 mL/g. An animal is considered “protected” from MES-induced seizures upon removal of the hind limb extensor component of the seizure.
Male and female albino CF1 mice (18-25 g, Charles River, Portage, Mich.) and male albino Sprague-Dawley rats (275-300 g, kindling test; 100-150 g all other tests; Charles River, Raleigh, N.C.) were used as experimental animals.

CCOC(=O)C1[C@@H]2[C@@H](O)[C@@H]3O[C@H](c4ccc(OC)cc4)OC[C@H]3O[C@H]12 (stereo partly drawn) [Compound 16, ethyl (2R,4aR,5aS,6aR,7R,7aS)-7-hydroxy-2-(4-methoxyphenyl)hexahydro-4H-cyclopropa[5,6]pyrano[3,2-d][1,3]dioxine-6-carboxylate]
TOX 30 0.5 h (animals toxic/tested) ([1]; 30 mg/kg, 0.5 h): 0/4
TOX 30 4 h (animals toxic/tested) ([1]; 30 mg/kg, 4 h): 0/2
TOX 100 0.5 h (animals toxic/tested) ([1]; 100 mg/kg, 0.5 h): 2/8
TOX 100 4 h (animals toxic/tested) ([1]; 100 mg/kg, 4 h): 0/4
TOX 300 0.5 h (animals toxic/tested) ([1]; 300 mg/kg, 0.5 h): 3/4
TOX 300 4 h (animals toxic/tested) ([1]; 300 mg/kg, 4 h): 1/2
responders at 30 mg/kg ([2]; 0.4 h, read-out: scMET 30 0.4 h (animals protected/tested)): 0%
responders at 30 mg/kg ([2]; 0.5 h, read-out: scMET 30 0.5 h (animals protected/tested)): 0%
responders at 100 mg/kg ([2]; 0.4 h, read-out: scMET 100 0.4 h (animals protected/tested)): 0%
responders at 100 mg/kg ([2]; 0.5 h, read-out: scMET 100 0.5 h (animals protected/tested)): 0%
responders at 300 mg/kg ([2]; 0.4 h, read-out: scMET 300 0.4 h (animals protected/tested)): 0%
responders at 300 mg/kg ([2]; 0.5 h, read-out: scMET 300 0.5 h (animals protected/tested)): 0%
MES 30 0.5 h (animals protected/tested) (MES-induced seizures; 0.5 h): 0/4
MES 30 4 h (animals protected/tested) (MES-induced seizures; 4 h): 1/4
